Experimental data from patent US11052092B2, “N-{[2-(piperidin-1-yl)phenyl](phenyl)methyl}-2-(3-oxo-3,4-dihydro-2H-1,4-benzoxazin-7-yl)acetamide derivatives and related compounds as ROR-gamma modulators for treating autoimmune diseases” (Genfit, priority 2017, dated 2021).

Columns and labels:
human RORγt = target: T1, human RORγt (Homo sapiens, UniProt P51449); test: RORE Luciferase/RORγt transactivation assay; assay type: cell-based; conditions: COS-7 cells transfected with human IL-17 promoter luciferase reporter and RORγt plasmid; 20 h with compound; read-out: IC50, RORγt activity inhibition
T1 construct: the full-length cDNA of human RORγt; expressed in transfected cells; host or cells: COS-7 (monkey kidney)
T1 sequence (P51449 1-497 isoform P51449-2): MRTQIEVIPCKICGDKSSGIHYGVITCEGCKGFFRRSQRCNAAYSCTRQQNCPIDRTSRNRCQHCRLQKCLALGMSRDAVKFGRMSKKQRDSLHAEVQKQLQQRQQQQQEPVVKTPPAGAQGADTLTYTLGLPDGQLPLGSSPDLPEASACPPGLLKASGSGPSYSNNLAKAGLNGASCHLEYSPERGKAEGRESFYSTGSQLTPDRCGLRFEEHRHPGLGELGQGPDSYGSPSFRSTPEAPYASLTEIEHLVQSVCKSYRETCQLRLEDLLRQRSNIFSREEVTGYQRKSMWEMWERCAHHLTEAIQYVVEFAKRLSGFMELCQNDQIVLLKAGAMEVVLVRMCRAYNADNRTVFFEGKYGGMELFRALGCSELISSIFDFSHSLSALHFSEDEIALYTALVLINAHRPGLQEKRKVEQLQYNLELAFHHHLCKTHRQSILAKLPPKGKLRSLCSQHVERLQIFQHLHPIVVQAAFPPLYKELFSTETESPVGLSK
How it was run: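 Transactivation read-out: luminescence (Steady-Glo, 30 min at room temperature) from COS-7 cells carrying a RORγt expression plasmid plus a 4.3 kb IL-17 promoter luciferase reporter. Compound exposure was in serum-free DMEM with 0.3% DMSO final. Reported values are IC50 (μM) and Emax (%).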

[1] = target: T2, RORγt ligand-binding domain (RORγt-LBD) (Homo sapiens, UniProt P51449); test: Time-resolved FRET (TR-FRET) RORγt coactivator assay; conditions: GST-RORγ-LBD, biotinylated RIP140 peptide, 2 hours at room temperature
T2 construct: 20 nM recombinantly expressed RORγ-LBD fused to GST
T2 sequence (P51449 269-508 limits assumed): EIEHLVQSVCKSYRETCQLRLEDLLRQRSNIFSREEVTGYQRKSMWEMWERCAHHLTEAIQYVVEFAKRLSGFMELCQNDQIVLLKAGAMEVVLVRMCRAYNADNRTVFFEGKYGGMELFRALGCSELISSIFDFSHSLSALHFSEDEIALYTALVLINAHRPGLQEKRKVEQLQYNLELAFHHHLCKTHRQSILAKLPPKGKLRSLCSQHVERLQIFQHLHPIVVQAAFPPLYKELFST
Text: Time-resolved FRET (TR-FRET) RORγt coactivator assay was used to identify RORγ modulator compounds with ligand-dependent coactivator displacement. The assay uses a d2-labeled anti-GST antibody, synthetic N-terminally biotinylated peptide which is derived from nuclear receptor coactivator protein RIP140, and a RORγt ligand-binding domain (RORγt-LBD) that is tagged with glutathione-S-transferase (GST). The influence of compounds on the RORγ-peptide interaction relies on the binding dependent energy transfer from a donor to an acceptor fluorophor attached to the binding partner of interest. […] For reduction of background from compound fluorescence, TR-FRET method makes use of generic fluorophore labels and time resolved detection.
The assays were done in a final volume of 20 μl in a 384 well plate in a CHAPS buffer (2 mM CHAPS; 1 mM DTT, 2 mM EDTA; 0.1% BSA), containing 20 nM recombinantly expressed RORγ-LBD fused to GST, 30 nM N-terminally biotinylated peptide, 1 nM streptavidin-terbium conjugate and 20 nM d2 labeled-anti-GST. Test compounds were diluted using 10 mM stock solution. The range of the final compound concentrations used in this test was from 0.3 nM to 30 μM (logarithmic scale). DMSO content of the samples was kept at 1%. The assay was equilibrated for 2 hours in the dark at room temperature in 384 well plates (Falcon). The signal was detected by an Ultra384 reader (TECAN). […] Compounds that promote coactivator displacement induce a concentration-dependent decrease in time-resolved fluorescent signal. Data were collected and analyzed using GraphPad Prism software (GraphPad Software V5.02, San Diego Calif. USA). IC50 in μM and Emax in % were reported for each compound.

[2] = test system: Murine EL-4 lymphoma cell line overexpressing human RORγt; test: IL-17 secretion from EL4 murine lymphoma; assay type: cell-based; conditions: Mus musculus; human RORγt-transfected EL4 cells, PMA (10 ng/mL) and ionomycin (1 μM), 24 h; read-out: IC50, IL-17 secretion inhibition
Method: Murine EL-4 lymphoma cell line overexpressing human RORγt was used in this functional assay to assess compound ability to inhibit IL-17 cytokine secretion.
EL-4 cells are maintained in a standard culture medium RPMI supplemented with 10% fetal calf serum, 1% sodium pyruvate, 1% essential amino acids and 1% antibiotics at 37° C. in a humidified atmosphere of 5% CO02 and 95% air. Culture medium was changed every 2 days. EL4 cells were transfected with a plasmid encoding hRORγt (sequence identical to published sequence NM 001001523). […] Briefly, 1 μg of DNA/1 million cells was served to transfect EL-4 cells. Cell/DNA suspension was transferred into certified cuvette and the electroporation of RORγt plasmid was carried out using appropriate Nucleofector® program.
Cells were seeded in 96 well plates at a density of 150000 cells/I well then treated with compounds of this invention at indicated concentrations and incubated for 24 hours at 37° C. in a humidified atmosphere of 5% C02 and 95% air. EL-4 cells were pretreated with test compounds (RORγ modulators) and stimulated with PMA (10 ng/mL) and ionomycin (1 μM final concentration) in the presence of test compound concentrations for additional 24 h at 37° C. in a humidified atmosphere of 5% C02 and 95% air. Subsequently, supernatants were collected (after centrifugation at 300 g for 10 minutes) to determine the concentrations of IL-17 by HTRF (CisBio, France) or ELISA (R&D Systems Europe) according to the manufacturer's protocols.

| Structure (SMILES) | IC50 (human RORγt) [nM] | IC50 [1] [nM] | IC50 [2] [nM] | melting point [°C] |
| --- | --- | --- | --- | --- |
| Cc1ccc(C(NC(=O)Cc2ccc3[nH]c(=O)cc(C)c3c2)c2ccccc2)c(C)c1 (stereo not drawn) [Cpd. 9, N-[(2,4-dimethylphenyl)(phenyl)methyl]-2-(4-methyl-2-oxo-1,2-dihydroquinolin-6-yl)acetamide] | 1000 to 10000 | 10 to 100 | – | – |
| O=C(Cc1ccc2[nH]c(=O)c(=O)[nH]c2c1)NC(c1ccccc1)c1ccccc1N1CCCCC1 (stereo not drawn) [Cpd. 12, 2-(2,3-dioxo-1,2,3,4-tetrahydroquinoxalin-6-yl)-N-{phenyl[2-(piperidin-1-yl)phenyl]methyl}acetamide] | – | 1000 to 10000 | – | – |
| O=C1Cc2cc(CC(=O)NC(c3ccccc3)c3ccccc3N3CCCCC3)ccc2N1 (stereo not drawn) [Cpd. 15, 2-(2-oxo-2,3-dihydro-1H-indol-5-yl)-N-{phenyl[2-(piperidin-1-yl)phenyl]methyl}acetamide] | 1000 to 10000 | 10 to 100 | – | – |
| O=C(Cc1ccc2c(c1)C(=O)C(=O)N2)NC(c1ccccc1)c1ccccc1N1CCCCC1 (stereo not drawn) [Cpd. 20, 2-(2,3-dioxo-2,3-dihydro-1H-indol-5-yl)-N-{phenyl[2-(piperidin-1-yl)phenyl]methyl}acetamide] | 1000 to 10000 | 1000 to 10000 | – | – |
| O=C(Cc1ccc2c(c1)CS(=O)(=O)N2)NC(c1ccccc1)c1ccccc1N1CCCCC1 (stereo not drawn) [Cpd. 26, 2-(2,2-dioxo-1,3-dihydro-2,1-benzothiazol-5-yl)-N-{phenyl[2-(piperidin-1-yl)phenyl]methyl}acetamide] | 1000 to 10000 | 10 to 100 | – | – |
| Cc1ccc(C(NC(=O)Cc2ccc3[nH]cc(CN4CCOCC4)c3c2)c2ccc(C)o2)c(N2CCCCC2)c1 (stereo not drawn) [Cpd. 94, N-{[4-methyl-2-(piperidin-1-yl)phenyl](5-methylfuran-2-yl)methyl}-2-[3-(morpholin-4-ylmethyl)-1H-indol-5-yl]acetamide] | 10 to 100 | – | < 100 | 100 |
| Cc1ccc(C(NC(=O)Cc2ccc3c(ccn3CCC(=O)O)c2)c2ccc(C)o2)c(N2CCCCC2)c1 (stereo not drawn) [Cpd. 97, 3-{5-[({[4-methyl-2-(piperidin-1-yl)phenyl](5-methylfuran-2-yl)methyl}carbamoyl)methyl]-1H-indol-1-yl}propanoic acid] | 10 to 100 | – | 100 to 1000 | 95 |
| COc1ccc(C(NC(=O)Cc2ccc3c(ccn3CCC(=O)O)c2)c2ccc(C)o2)c(N2CCCCCC2)c1 (stereo not drawn) [Cpd. 111, 3-{5-[({[2-(azepan-1-yl)-4-methoxyphenyl](5-methylfuran-2-yl)methyl}carbamoyl)methyl]-1H-indol-1-yl}propanoic acid] | 10 to 100 | – | 100 to 1000 | 80 |
| Cc1ccc(C(NC(=O)Cc2ccc3c(ccn3C(=O)N3CCOCC3)c2)c2ccc(C)o2)c(N2CCCCC2)c1 (stereo not drawn) [Cpd. 116, N-{[4-methyl-2-(piperidin-1-yl)phenyl](5-methylfuran-2-yl)methyl}-2-[1-(morpholine-4-carbonyl)-1H-indol-5-yl]acetamide] | 10 to 100 | – | < 100 | 88 |
| Cc1ccc(C(NC(=O)Cc2ccc3c(C(=O)CS(C)(=O)=O)c[nH]c3c2)c2ccc(C)o2)c(N2CCCCC2)c1 (stereo not drawn) [Cpd. 117, 2-[3-(2-methanesulfonylacetyl)-1H-indol-6-yl]-N-{[4-methyl-2-(piperidin-1-yl)phenyl](5-methylfuran-2-yl)methyl}acetamide] | 10 to 100 | – | 100 to 1000 | 85 |
| Cc1ccc(C(NC(=O)C2(c3ccc4[nH]cc(CNS(C)(=O)=O)c4c3)CC2)c2ccc(C)o2)c(N2CCCCC2)c1 (stereo not drawn) [Cpd. 119, 1-[3-(methanesulfonamidomethyl)-1H-indol-5-yl]-N-{[4-methyl-2-(piperidin-1-yl)phenyl](5-methylfuran-2-yl)methyl}cyclopropane-1-carboxamide] | 10 to 100 | – | < 100 | 109 |

Other lines, results leading:

| IC50 (human RORγt) [nM] | IC50 [1] [nM] | IC50 [2] [nM] | melting point [°C] | Structure (SMILES) |
| --- | --- | --- | --- | --- |
| > 10000 | 100 to 1000 | – | – | O=C1COc2cc(CC(=O)NC(c3ccccc3)c3ccccc3N3CCOCC3)ccc2N1 (stereo not drawn) [Cpd. 7, N-{[2-(morpholin-4-yl)phenyl](phenyl)methyl}-2-(3-oxo-3,4-dihydro-2H-1,4-benzoxazin-7-yl)acetamide] |
| – | 100 to 1000 | – | – | Cc1ccc(C(NC(=O)Cc2ccc3[nH]c(=O)cc(C)c3c2)c2ccccc2)c(N2CCOCC2)c1 (stereo not drawn) [Cpd. 8, N-{[4-methyl-2-(morpholin-4-yl)phenyl](phenyl)methyl}-2-(4-methyl-2-oxo-1,2-dihydroquinolin-6-yl)acetamide] |
| 1000 to 10000 | 100 to 1000 | – | – | Cc1ccc(C(NC(=O)Cc2ccc3c(c2)CC(=O)N3)c2ccccc2)c(N2CCOCC2)c1 (stereo not drawn) [Cpd. 18, N-{[4-methyl-2-(morpholin-4-yl)phenyl](phenyl)methyl}-2-(2-oxo-2,3-dihydro-1H-indol-5-yl)acetamide] |
| – | 1000 to 10000 | – | – | CC1(C)Oc2cc(CC(=O)NC(c3ccccc3)c3ccccc3N3CCCCC3)ccc2NC1=O (stereo not drawn) [Cpd. 19, 2-(2,2-dimethyl-3-oxo-3,4-dihydro-2H-1,4-benzoxazin-7-yl)-N-{phenyl[2-(piperidin-1-yl)phenyl]methyl}acetamide] |
| 100 to 1000 | 100 to 1000 | – | – | Cc1ccc(C(NC(=O)Cc2ccc3c(c2)OC(C)(C)C(=O)N3)c2ccccc2)c(N2CCOCC2)c1 (stereo not drawn) [Cpd. 21, 2-(2,2-dimethyl-3-oxo-3,4-dihydro-2H-1,4-benzoxazin-7-yl)-N-{[4-methyl-2-(morpholin-4-yl)phenyl](phenyl)methyl}acetamide] |
| 1000 to 10000 | 100 to 1000 | – | – | COc1ccc(C(NC(=O)Cc2ccc3c(c2)C(=O)C(=O)N3)c2ccccc2)c(N2CCCCC2)c1 (stereo not drawn) [Cpd. 22, 2-(2,3-dioxo-2,3-dihydro-1H-indol-5-yl)-N-{[4-methoxy-2-(piperidin-1-yl)phenyl](phenyl)methyl}acetamide] |
| 1000 to 10000 | 100 to 1000 | – | – | COc1ccc(C(NC(=O)Cc2ccc3c(c2)OC(C)(C)C(=O)N3)c2ccc(C)o2)c(N2CCOCC2)c1 (stereo not drawn) [Cpd. 30, 2-(2,2-dimethyl-3-oxo-3,4-dihydro-2H-1,4-benzoxazin-7-yl)-N-{[4-methoxy-2-(morpholin-4-yl)phenyl](5-methylfuran-2-yl)methyl}acetamide] |
